Assay results: paper PMC9168620, “Genetic validation of Aspergillus fumigatus phosphoglucomutase as a viable therapeutic target in invasive aspergillosis” (The Journal of Biological Chemistry, 2022)
In brackets after ≈: the same amount, converted by molar mass. Entries after “also recorded” stand apart in the source; their conditions may differ. Read-outs that look alike come from different tables or passages of the source.

Key:
[1] = target: T1, AfPGMC353∗ (Aspergillus fumigatus, UniProt Q4WY53, C131S/C242S/C364S); assay: Covalent modification, intact protein mass spectrometry, AfPGMC353∗; assay type: binding; conditions: AfPGMC353∗:ISFP1 1:20; single adduct on C353
T1 construct: Full length AfPGM; 6His-GST (N, cleaved yes); made in house; host or cells: E. coli BL21 (DE3) pLysS
Method: (§1) PGM was dissolved to 20 μM in Hepes buffer (25 mM Hepes–NaOH (pH 7.5), 150 mM NaCl) and incubated with compound (protein:compound 1:20; 2% (v/v) DMSO) at 20 °C for 10 min (for AfPGM) or 4 °C overnight (for AfPGMC353∗). Excess compound molecules were removed using desalting column (CentriPure P2, Generon). PGM (20 μM) incubated with DMSO at the same condition was utilized as a control. The removal of isothiazolone adducts was carried out through the incubation with DTT (10 mM) at 20 °C for 10 min. DTT was removed using a desalting column (CentriPure P2, Generon). The ring-opened isothiazolone protein modification was confirmed using intact protein mass spectrometry.

[2] = target: T2, AfPGMC353V (Aspergillus fumigatus, UniProt Q4WY53, C353V); assay: G6PDH coupled assay for PGM, AfPGM C353V mutant; assay type: biochemical; conditions: 5 nM enzyme, no preincubation
T2 construct: Full length AfPGM; 6His-GST (N, cleaved yes); made in house; host or cells: E. coli BL21 (DE3) pLysS
Method: (§2) The reaction mixture contained MOPS–NaOH (pH 7.4; 50 mM), MgSO4 (1.5 mM), NADP^+ (1 mM), G6PDH (0.01 U) from L. mesenteroides, Glc-1P (500 μM), Glc-1,6-2P (50 μM), and enzyme (5 nM). The reaction was carried out at 25 °C for 6 min in a total volume of 100 μl. Formation of NADPH was detected in real-time (every 1.5 min), measuring fluorescence signal (excitation at 360 nm; emission at 460 nm). To measure the inhibitory activity, compounds with different concentrations (3% (v/v) DMSO) were added to the reaction system. IC50 values were calculated using the product (NADPH) concentration at 6 min with 500 μM Glc-1P.

[3] = target: T3, AfPGM (Aspergillus fumigatus, UniProt Q4WY53); assay: biochemical
T3 construct: Full length AfPGM; 6His-GST (N, cleaved yes); made in house; host or cells: E. coli BL21 (DE3) pLysS
Method: as §2
(§3) Figure S11: Representative enzyme activity assays for PGMs. Error bars represent standard deviation of three determinations. Panel A and B show the time course of PGMs and PGM mutants in which sugar recognition glutamates are mutated to glutamine. […] Values in parentheses indicate the time at which DTT (1 mM) was added.

[4] = target: T4, CaPGM (Candida albicans, UniProt A0A1D8PSA9); assay: G6PDH coupled assay for PGM, WT CaPGM; assay type: biochemical; conditions: 5 nM enzyme, no preincubation
T4 sequence (A0A1D8PSA9 1-560): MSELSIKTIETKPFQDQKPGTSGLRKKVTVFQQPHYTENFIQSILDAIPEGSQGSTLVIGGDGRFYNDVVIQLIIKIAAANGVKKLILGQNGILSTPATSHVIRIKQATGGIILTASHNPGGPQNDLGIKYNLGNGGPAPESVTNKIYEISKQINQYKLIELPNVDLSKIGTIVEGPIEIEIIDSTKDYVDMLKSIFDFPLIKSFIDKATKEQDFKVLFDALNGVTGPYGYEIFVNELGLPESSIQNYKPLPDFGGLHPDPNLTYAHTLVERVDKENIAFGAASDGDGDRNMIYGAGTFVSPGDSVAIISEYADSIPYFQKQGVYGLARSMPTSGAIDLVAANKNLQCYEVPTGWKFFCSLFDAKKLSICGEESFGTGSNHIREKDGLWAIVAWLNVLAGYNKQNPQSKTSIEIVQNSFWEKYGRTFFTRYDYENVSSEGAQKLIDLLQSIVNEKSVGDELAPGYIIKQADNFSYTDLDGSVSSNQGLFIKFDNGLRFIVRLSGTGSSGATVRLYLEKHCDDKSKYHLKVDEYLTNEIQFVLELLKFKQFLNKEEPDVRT
Method: as §2

[5] = target: T1, AfPGMC353∗; assay: G6PDH coupled assay for PGM, AfPGMC353∗ variant (C353 the sole cysteine); assay type: biochemical; conditions: IC50 AfPGMC353, AfPGMC353∗ (all other cysteines mutated to serine) 5 nM, no preincubation
Method: as §2

[6] = tested on: A. fumigatus; assay: Growth inhibition (MIC) of A. fumigatus; assay type: cell-based; conditions: Aspergillus fumigatus; preliminary experiments
Excerpt: Figure S12: Limited correlation between minimal inhibitory concentrations (MIC) and IC50 values of isothiazolone derivatives against AfPGM. […] The R^2 value of linear correlation is 0.15.

[7] = target: T5, CaPGMC359S (Candida albicans, UniProt A0A1D8PSA9, C359S); assay: G6PDH coupled assay for PGM, CaPGM C359S mutant; assay type: biochemical; conditions: 5 nM enzyme, no preincubation
T5 sequence (A0A1D8PSA9 1-560 C359S): T4 sequence (A0A1D8PSA9 1-560)
Method: as §2

[8] = target: T3, AfPGM; assay: Covalent modification, intact protein mass spectrometry, AfPGM; assay type: binding; conditions: AfPGM:ISFP1 1:20; one adduct per protein molecule; reversed by DTT
Method: as §1

[9] = target: T6, HsPGM (Homo sapiens, UniProt P36871); assay: G6PDH coupled assay for PGM, HsPGM; assay type: biochemical
T6 construct: Full length HsPGM; 6His-GST (N, cleaved yes); made in house; host or cells: E. coli BL21 (DE3) pLysS (same protocol as AfPGM)
T6 sequence (P36871 1-562): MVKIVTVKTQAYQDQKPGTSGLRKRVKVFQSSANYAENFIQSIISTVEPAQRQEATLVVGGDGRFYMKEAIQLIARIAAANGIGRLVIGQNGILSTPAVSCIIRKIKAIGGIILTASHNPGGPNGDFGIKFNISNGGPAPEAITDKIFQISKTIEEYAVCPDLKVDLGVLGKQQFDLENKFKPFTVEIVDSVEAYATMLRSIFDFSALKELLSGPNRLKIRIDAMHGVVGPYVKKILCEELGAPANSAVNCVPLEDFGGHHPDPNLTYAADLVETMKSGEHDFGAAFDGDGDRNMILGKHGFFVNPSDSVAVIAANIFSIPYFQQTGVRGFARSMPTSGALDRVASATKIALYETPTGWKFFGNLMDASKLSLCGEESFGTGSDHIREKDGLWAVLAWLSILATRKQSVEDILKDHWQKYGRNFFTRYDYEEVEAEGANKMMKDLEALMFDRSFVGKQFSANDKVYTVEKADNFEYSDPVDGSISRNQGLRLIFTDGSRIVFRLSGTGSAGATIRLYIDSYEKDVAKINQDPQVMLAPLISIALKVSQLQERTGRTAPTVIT
Method: as §2, §3

[10] = target: T3, AfPGM; assay: Biolayer interferometry fragment binding; conditions: 0 to 500 µM
Method: Amino groups of lysine side chains in PGM were biotinylated (EZ-Link NHSPEG4-Biotin) with one-to-one stoichiometry (one adduct per protein molecule). Biotinylated protein molecules were loaded on streptavidin-immobilized sensors (Super Streptavidin Biosensor). BLI was carried out using an Octet Red 384 instrument (ForteBio). Screening cycles included the baseline phase (protein was incubated for 60 s in screening buffer [25 mM Hepes–NaOH (pH 7.5), 150 mM NaCl, 2% DMSO (v/v]), the association phase (protein was incubated for 60 s in wells containing 200 μM fragment compounds dissolved in the screening buffer), and the dissociation phase (protein was incubated for 60 s in the screening buffer without any fragment compounds). Sensors blocked by biocytin were utilized as a control. Fragment compounds were purchased from Maybridge (1000 fragment compounds). Fragment compounds whose signal values were higher than the median value plus three times robust SD were considered as hits. The confirmation of hits was carried out using dose-response assays. Briefly, a BLI assay was carried out with each hit in a series of concentrations (from 0 to 500 μM). Running cycles included the baseline phase (60 s in the screening buffer), the association phase (120 s in the screening buffer with fragment compounds), and the dissociation phase (120 s in the screening buffer without compounds). […]

[11] = target: T3, AfPGM; assay: AfPGM enzyme kinetics in the presence of ISFP1 (G6PDH coupled assay); assay type: biochemical
Method: As previously described, two speculated mechanisms, perturbing substrate binding or phosphoryl transfer, have been proposed based on the complex structure of CaPGM-ISFP1. […] As such, the inhibitory mechanism is likely to be a consequence of slowing the rate of phosphoryl transfer.
as §2, §3

[12] = 50 µM ISFP1 preincubated 15 min with 5 nM enzyme, DTT 1 mM (Fig. S11G)

T3 sequence (Q4WY53 whole entry): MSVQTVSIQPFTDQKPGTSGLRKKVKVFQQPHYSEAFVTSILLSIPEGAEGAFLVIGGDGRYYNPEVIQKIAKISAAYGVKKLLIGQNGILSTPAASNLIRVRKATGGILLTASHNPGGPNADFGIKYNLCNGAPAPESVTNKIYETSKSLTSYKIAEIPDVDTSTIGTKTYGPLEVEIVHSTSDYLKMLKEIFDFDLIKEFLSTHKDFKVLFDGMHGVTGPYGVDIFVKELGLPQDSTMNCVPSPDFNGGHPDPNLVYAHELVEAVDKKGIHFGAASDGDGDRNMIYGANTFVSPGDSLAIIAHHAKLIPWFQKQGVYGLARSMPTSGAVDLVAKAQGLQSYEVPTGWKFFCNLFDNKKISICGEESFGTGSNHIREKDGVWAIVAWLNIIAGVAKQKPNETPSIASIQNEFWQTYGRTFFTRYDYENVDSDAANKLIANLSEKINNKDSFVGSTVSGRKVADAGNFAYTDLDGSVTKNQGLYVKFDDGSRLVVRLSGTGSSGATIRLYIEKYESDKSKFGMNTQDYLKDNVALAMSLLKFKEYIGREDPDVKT
T1 sequence (Q4WY53 whole entry C131S/C242S/C364S): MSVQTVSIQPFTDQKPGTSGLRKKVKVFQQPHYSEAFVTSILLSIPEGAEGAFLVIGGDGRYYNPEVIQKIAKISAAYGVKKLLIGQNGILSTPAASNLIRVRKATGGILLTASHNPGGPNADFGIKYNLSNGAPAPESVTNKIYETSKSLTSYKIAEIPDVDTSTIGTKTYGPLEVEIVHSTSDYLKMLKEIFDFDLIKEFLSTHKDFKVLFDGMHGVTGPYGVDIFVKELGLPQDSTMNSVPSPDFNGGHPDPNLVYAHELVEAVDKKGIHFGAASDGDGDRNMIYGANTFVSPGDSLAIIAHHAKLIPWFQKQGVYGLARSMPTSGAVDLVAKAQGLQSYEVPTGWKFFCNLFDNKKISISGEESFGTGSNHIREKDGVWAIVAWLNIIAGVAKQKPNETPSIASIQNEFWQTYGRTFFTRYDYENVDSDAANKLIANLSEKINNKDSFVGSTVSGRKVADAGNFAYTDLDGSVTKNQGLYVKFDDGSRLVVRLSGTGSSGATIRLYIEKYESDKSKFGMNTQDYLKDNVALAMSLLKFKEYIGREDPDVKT
T2 sequence (Q4WY53 whole entry C353V): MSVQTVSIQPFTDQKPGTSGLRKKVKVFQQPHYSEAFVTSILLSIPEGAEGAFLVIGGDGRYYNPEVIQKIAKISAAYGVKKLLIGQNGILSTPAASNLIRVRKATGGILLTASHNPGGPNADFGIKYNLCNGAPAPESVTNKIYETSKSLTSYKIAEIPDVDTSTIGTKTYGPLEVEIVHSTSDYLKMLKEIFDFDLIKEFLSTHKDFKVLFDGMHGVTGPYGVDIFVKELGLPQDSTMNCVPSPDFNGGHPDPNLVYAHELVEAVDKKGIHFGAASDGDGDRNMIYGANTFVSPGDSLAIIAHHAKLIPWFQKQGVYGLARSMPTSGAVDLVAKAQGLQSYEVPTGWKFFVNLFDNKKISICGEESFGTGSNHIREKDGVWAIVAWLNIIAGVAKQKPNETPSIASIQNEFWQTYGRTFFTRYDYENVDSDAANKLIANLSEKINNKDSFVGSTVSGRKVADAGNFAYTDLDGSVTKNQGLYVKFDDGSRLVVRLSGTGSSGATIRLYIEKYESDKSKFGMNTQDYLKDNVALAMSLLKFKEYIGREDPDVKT

In the case of O=c1ccsn1-c1cccc(Cl)c1F [ISFP1], the “Increase in protein mass after incubation with compound” value [1] is reported as 232 Da, the “Inhibition of AfPGM C353V mutant” value [2] is reported as “does not inhibit; also recorded: not inhibited” and the “Rescue of AfPGM activity by DTT after inhibition” value [3, 12] is reported as “rescued by the addition of DTT”. The IC50 ([3]; WT AfPGM 5 nM, no preincubation, 500 μM Glc-1P) was 2 µM, the IC50 [4] was 5 µM and the IC50 [5] was 3 µM. The MIC [6] was 10 µg/mL (≈ 43.5 µM), the IC50 [7] was > 400 µM and the “IC50 CaPGM C359S mutant” value [7] was “No inhibition”. For the same compound, the “Increase in protein mass after incubation with compound” value [8] was 232 Da, the “Rescue of HsPGM activity by DTT after inhibition” value [9, 12] was “could not be rescued by DTT treatment” and the IC50 ([9]; IC50 HsPGM, HsPGM 5 nM, no preincubation, > values: highest concentration at which the compound can solubilize) was 80 ± 2 µM. For the same compound, the IC50 ([9]; enzyme preincubated with compound for 15 min (Fig. S11E, F), read-out: IC50 HsPGM after preincubation) was 7.5 µM, the “Binding to AfPGM by BLI” value [10] was “bound to AfPGM in a concentration-dependent manner” and the “Decrease of AfPGM kcat” value ([11]; 20 μM ISFP1) was 10 fold. For the same compound, the “Change of AfPGM Km” value ([11]; in the presence of ISFP1) was “remains at the same level”.
